{
  "source": "paper PMC11923649",
  "about": "“Novel C-2 Aromatic Heterocycle-Substituted Triterpenoids Inhibit Hedgehog Signaling in GLI1 Overexpression Cancer Cells” (ACS Omega, 2025)",
  "key": {"CEM-DNR": {"tested_on": "CEM-DNR", "test": "MTS cytotoxicity assay, 72 h, CEM-DNR", "type": "cell-based", "settings": "Homo sapiens"}, "[1]": {"tested_on": "BJ human skin fibroblasts", "test": "MTS cytotoxicity assay, 72 h, BJ fibroblasts", "type": "cell-based", "settings": "Homo sapiens, Skin fibroblast, normal fibroblasts", "method_in_brief": "(§1)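 Cells were exposed to compounds for 72 h at 50–0.0975 μmol/L (2-fold dilutions), then MTS/phenazine methosulfate was added for 1–4 h. Absorbance read at 490 nm; IC50 derived from concentration-response.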"}, "U-87 MG-Gli-FLuc cells": {"tested_on": "U-87 MG-Gli-FLuc cells", "test": "MTS viability assay run in parallel with U-87 MG-Gli-FLuc reporter assay", "type": "cell-based, human", "settings": "up to a dose of 6.25 μmol/L, 24 h", "procedure": "A possible direct inhibition of the reporter (Fluc) and luminescence itself, which could lead to false positive results, was also ruled out in a cellular as well as a noncellular model (data not shown).\nFigure 1 Effect of compounds 11a, 11b, and positive control GANT-61 on Gli1 activation and cell viability measured using the U-87 MG-Gli-FLuc reporter assay. Data are expressed as percentages of control (100%) and represent the mean of three independent experiments with the standard deviation. To distinguish specific inhibition of Gli activation from a nonspecific cellular response, an MTS assay was performed simultaneously under the same conditions in 96-well transparent plates. Statistical analysis of Gli1 activity was performed using one-sample Student’s t-test (mu = 100): *, p < 0.05; **, p < 0.01. The same analysis was used to assess cytotoxicity by MTS assay: #, p < 0.05; ##, p < 0.01.\nThe U-87 MG-Gli-FLuc reporter cell line was developed from the human glioblastoma line U-87 MG obtained from ATCC and cultured in EMEM medium supplemented with 10% FBS, 1 mmol/L sodium pyruvate, and a 1 mmol/L nonessential amino acid mixture. […] Panels were placed on a shaker to achieve complete cell lysis, and luminescence was measured after 3 min using an EnVision plate reader."}, "HCT116 p53–/–": {"tested_on": "HCT116 p53–/–", "test": "MTS cytotoxicity assay, 72 h, HCT116 p53–/–", "type": "cell-based", "settings": "Homo sapiens, HCT-116, 72 h", "method_in_brief": "as §1"}, "[2]": {"tested_on": "A549 (lung adenocarcinoma)", "test": "MTS cytotoxicity assay, 72 h, A549", "type": "cell-based", "settings": "Homo sapiens, A549, 72 h", "method_in_brief": "as §1"}},
  "data": [
    {"smiles": "C=C(C)[C@@H]1CC[C@]2(C(=O)O)CC[C@]3(C)C(CCC4[C@@]5(C)C=C(c6ccoc6)C(=O)C(C)(C)C5CC[C@]43C)C12", "note": "(stereo partly drawn) [Compound 11b, 2-(Furan-3-yl)-3-oxolupa-1,20(29)-dien-28-oic acid]", "values": [
      {"measurement": "IC50", "setting": "CEM-DNR; Table 1", "result": 22, "unit": "µM"},
      {"measurement": "IC50", "setting": "CEM-DNR; full Table S1", "result": 21.8, "unit": "µM"},
      {"measurement": "IC50", "setting": "[1]; Table 1", "result": 37, "unit": "µM"},
      {"measurement": "IC50", "setting": "[1]; full Table S1", "result": 36.6, "unit": "µM"},
      {"measurement": "Inhibition of proliferation or cell death induction (MTS) under reporter conditions", "setting": "U-87 MG-Gli-FLuc cells", "result": "not accompanied by inhibition of proliferation or cell death induction"},
      {"measurement": "IC50", "setting": "HCT116 p53–/–; Table 1", "result": 14, "unit": "µM"},
      {"measurement": "IC50", "setting": "HCT116 p53–/–; full Table S1", "result": 13.5, "unit": "µM"},
      {"measurement": "IC50", "setting": "[2]; Table 1", "result": 12, "unit": "µM"},
      {"measurement": "IC50", "setting": "[2]; full Table S1", "result": 12.1, "unit": "µM"}
    ]},
    {"smiles": "C=C(C)[C@@H]1CC[C@]2(C(=O)O)CC[C@]3(C)C(CCC4[C@@]5(C)C=C(c6ccco6)C(=O)C(C)(C)C5CC[C@]43C)C12", "note": "(stereo partly drawn) [Compound 11a, 2-(Furan-2-yl)-3-oxolupa-1,20(29)-dien-28-oic acid]", "values": [
      {"measurement": "IC50", "setting": "CEM-DNR; Table 1", "result": 15, "unit": "µM"},
      {"measurement": "IC50", "setting": "CEM-DNR; full Table S1", "result": 15.3, "unit": "µM"},
      {"measurement": "IC50", "setting": "[1]; Table 1", "result": 39, "unit": "µM"},
      {"measurement": "IC50", "setting": "[1]; full Table S1", "result": 39.1, "unit": "µM"},
      {"measurement": "Inhibition of proliferation or cell death induction (MTS) under reporter conditions", "setting": "U-87 MG-Gli-FLuc cells", "result": "not accompanied by inhibition of proliferation or cell death induction"},
      {"measurement": "IC50", "setting": "HCT116 p53–/–; Table 1", "result": 12, "unit": "µM"},
      {"measurement": "IC50", "setting": "HCT116 p53–/–; full Table S1", "result": 12.4, "unit": "µM"},
      {"measurement": "IC50", "setting": "[2]; Table 1", "result": 12, "unit": "µM"},
      {"measurement": "IC50", "setting": "[2]; full Table S1", "result": 12.1, "unit": "µM"}
    ]}
  ]
}
